Source: the supplement of paper PMC10307832

compound: CC1CC(=O)N(C2=CN=C(N=C2N1C3CCCC3)NC4=C(C=C(C=C4)C(=O)NC5CCN(CC5)C)OC)C [NPK76-II-72-1] + O=C(c1cc(Cc2n[nH]c(=O)c3ccccc23)ccc1F)N1CCN(C(=O)C2CC2)CC1 [Olaparib] (partner 8 µM); assay: relative viability (nuclei count vs DMSO), 5 days (fraction); higher = more cells survive; conditions: first compound 0.03162 µM
Summary of the method: (§1)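 Each reported value is a median over duplicate plates. It expresses relative viability: treated-well nuclei count divided by vehicle-well nuclei count. Lung cancer cell lines in 1536-well plates were dosed by pin tool a day after seeding, alone with one drug or with a fixed anchor-drug dose plus five library-drug doses (not always all listed) in √10 steps, and nuclei were counted after 5 days.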

Compared with NCI-H1666, NCI-H596 is lower in relative viability: 0.754 for the first, 0.748 for the second.

First: LK-2
Second: NCI-H2342
The relative viability of the first is higher: 0.716 for the first, 0.377 for the second.

First: SK-MES-1
Second: COR-L23
The relative viability of the first is higher: 0.787 for the first, 0.38 for the second.

Compared with COR-L 105, IA-LM is higher in relative viability: 0.795 for the first, 0.825 for the second.

Compared with A549, SW 900 is higher in relative viability: 0.387 for the first, 0.908 for the second.

Going from NCI-H1648 to NCI-H2009, the relative viability falls from 0.891 to 0.787.

Compared with NCI-H661, SK-LU-1 is lower in relative viability: 0.705 for the first, 0.49 for the second.

Going from NCI-H1299 to CAL-12T, the relative viability falls from 1.01 to 0.829.

First: NCI-H2228
Second: NCI-H2023
The relative viability of the first is higher: 0.666 for the first, 0.57 for the second.

same assay, conditions: first compound 0.1 µM

Going from NCI-H522 to NCI-H727, the relative viability falls from 0.703 to 0.655.

Compared with NCI-H1650, EBC-1 is lower in relative viability: 0.721 for the first, 0.712 for the second.

Compared with NCI-H1703, NCI-H1993 is higher in relative viability: 0.381 for the first, 1.24 for the second.

Going from SW 1573 to NCI-H838, the relative viability rises from 0.495 to 0.768.

First: LCLC-103H
Second: NCI-H520
The relative viability of the first is higher: 0.74 for the first, 0.268 for the second.

First: NCI-H2126
Second: EMC-BAC-2
The relative viability of the first is higher: 0.901 for the first, 0.51 for the second.

First: NCI-H2085
Second: Calu-6
The relative viability of the first is higher: 0.783 for the first, 0.65 for the second.

Compared with HCC-366, NCI-H1666 is higher in relative viability: 0.469 for the first, 0.735 for the second.

First: NCI-H596
Second: LK-2
The relative viability of the first is higher: 0.68 for the first, 0.679 for the second.

Going from NCI-H2342 to SK-MES-1, the relative viability rises from 0.457 to 0.794.

Compared with COR-L23, COR-L 105 is higher in relative viability: 0.34 for the first, 0.46 for the second.

Compared with IA-LM, A549 is lower in relative viability: 0.766 for the first, 0.356 for the second.

Compared with SW 900, NCI-H1648 is lower in relative viability: 0.739 for the first, 0.567 for the second.

Compared with NCI-H2009, NCI-H661 is higher in relative viability: 0.675 for the first, 0.778 for the second.

Compared with SK-LU-1, NCI-H1299 is higher in relative viability: 0.475 for the first, 0.953 for the second.

Compared with CAL-12T, NCI-H2228 is higher in relative viability: 0.726 for the first, 0.841 for the second.

NCI-H2023 showed a relative viability of 0.561.

same assay, conditions: first compound 0.3162 µM

Compared with NCI-H727, NCI-H1650 is higher in relative viability: 0.699 for the first, 0.82 for the second.

First: EBC-1
Second: NCI-H1703
The relative viability of the first is higher: 0.7 for the first, 0.33 for the second.

Compared with NCI-H1993, SW 1573 is lower in relative viability: 1.07 for the first, 0.488 for the second.

Compared with NCI-H838, LCLC-103H is higher in relative viability: 0.738 for the first, 0.796 for the second.

Going from NCI-H520 to NCI-H2126, the relative viability rises from 0.385 to 0.855.

First: EMC-BAC-2
Second: NCI-H2085
The relative viability of the first is lower: 0.486 for the first, 0.726 for the second.

Compared with Calu-6, HCC-366 is lower in relative viability: 0.62 for the first, 0.39 for the second.

First: NCI-H1666
Second: NCI-H596
The relative viability of the first is higher: 0.84 for the first, 0.704 for the second.

Going from LK-2 to NCI-H2342, the relative viability falls from 0.565 to 0.43.

Compared with SK-MES-1, COR-L23 is lower in relative viability: 0.746 for the first, 0.335 for the second.

Compared with COR-L 105, IA-LM is higher in relative viability: 0.683 for the first, 0.788 for the second.

First: A549
Second: SW 900
The relative viability of the first is lower: 0.269 for the first, 0.743 for the second.

Compared with NCI-H1648, NCI-H2009 is lower in relative viability: 0.889 for the first, 0.686 for the second.

First: NCI-H661
Second: SK-LU-1
The relative viability of the first is higher: 0.666 for the first, 0.511 for the second.

First: NCI-H1299
Second: CAL-12T
The relative viability of the first is higher: 0.95 for the first, 0.741 for the second.

First: NCI-H2228
Second: NCI-H2023
The relative viability of the first is higher: 0.597 for the first, 0.425 for the second.

same assay, conditions: first compound 1 µM

First: NCI-H522
Second: NCI-H727
The relative viability of the first is lower: 0.607 for the first, 0.679 for the second.

First: NCI-H1650
Second: EBC-1
The relative viability of the first is lower: 0.784 for the first, 0.812 for the second.

Compared with NCI-H1703, NCI-H1993 is higher in relative viability: 0.431 for the first, 1.29 for the second.

Compared with SW 1573, NCI-H838 is higher in relative viability: 0.473 for the first, 0.805 for the second.

First: LCLC-103H
Second: NCI-H520
The relative viability of the first is higher: 0.759 for the first, 0.343 for the second.

Going from NCI-H2126 to EMC-BAC-2, the relative viability falls from 0.956 to 0.541.

First: NCI-H2085
Second: Calu-6
The relative viability of the first is higher: 0.83 for the first, 0.559 for the second.

First: HCC-366
Second: NCI-H1666
The relative viability of the first is lower: 0.366 for the first, 0.758 for the second.

First: NCI-H596
Second: LK-2
The relative viability of the first is lower: 0.67 for the first, 0.725 for the second.

First: NCI-H2342
Second: SK-MES-1
The relative viability of the first is lower: 0.535 for the first, 0.728 for the second.

Going from COR-L23 to COR-L 105, the relative viability rises from 0.396 to 0.794.

First: IA-LM
Second: A549
The relative viability of the first is higher: 0.847 for the first, 0.417 for the second.

Compared with SW 900, NCI-H1648 is higher in relative viability: 0.982 for the first, 1.05 for the second.

Compared with NCI-H2009, NCI-H661 is higher in relative viability: 0.64 for the first, 0.83 for the second.

First: SK-LU-1
Second: NCI-H1299
The relative viability of the first is lower: 0.587 for the first, 0.947 for the second.

Going from CAL-12T to NCI-H2228, the relative viability falls from 0.825 to 0.817.

NCI-H2023 showed a relative viability of 0.491.

compound: CC[C@@H]1C(=O)N(C)c2cnc(Nc3ccc(C(=O)NC4CCN(C)CC4)cc3OC)nc2N1C1CCCC1 [BI-2536] + CS(=O)(=O)N1CCN(Cc2cc3nc(-c4cccc5[nH]ncc45)nc(N4CCOCC4)c3s2)CC1 [Pictilisib] (partner 1 µM); assay: as above; conditions: first compound 0.01 µM
Summary of the method: as §1

First: NCI-H727
Second: NCI-H1650
The relative viability of the first is lower: 0.391 for the first, 0.567 for the second.

Compared with EBC-1, NCI-H1703 is lower in relative viability: 0.35 for the first, 0.244 for the second.

Compared with NCI-H1993, SW 1573 is lower in relative viability: 0.981 for the first, 0.477 for the second.

First: NCI-H838
Second: LCLC-103H
The relative viability of the first is lower: 0.44 for the first, 0.585 for the second.

Compared with NCI-H520, NCI-H2126 is higher in relative viability: 0.287 for the first, 0.509 for the second.

Going from EMC-BAC-2 to NCI-H2085, the relative viability falls from 0.502 to 0.395.

First: Calu-6
Second: HCC-366
The relative viability of the first is higher: 0.894 for the first, 0.144 for the second.

Going from NCI-H1666 to NCI-H596, the relative viability falls from 0.558 to 0.376.
